According to patent US20050222134A1, “Crystalline forms of 5, 11-dihydro-11-ethyl-5-methyl-8-{2-{(1-oxido-4-quinolinyl)oxy}ethyl}-6H-dipyrido[3,2-b:2',3'-e] [1,4]diazepin-6-one” (Boehringer Ingelheim International GmbH, priority 2004, published 2005):

Legend:
[1] = Solubility experiments used to determine the phase diagram of the crystalline forms; type: physicochemical; conditions: 25° C.; for water content of ethanol solution in contact with which the form is thermodynamically favored over the other forms: ethanol solutions saturated with the compound, compared with the dihydrate, anhydrous Form I and Form III
Procedure: Solubility experiments were used to determine the unique phase diagram shown in FIG. 5 for the various forms of 5,11-dihydro-11-ethyl-5-methyl-8-{2-{(1-oxido-4-quinolinyl)oxy}ethyl}-6H-dipyrido[3,2-b:2′,3′-e][1,4]diazepin-6-one. […] Additionally, anhydrous Form III is thermodynamically favored over the dihydrate and anhydrous Form I at 25° C. when in contact with ethanol solutions containing<˜2.7±0.5 wt % water.

[2] = Phase stability of crystalline forms at ambient / storage conditions; type: physicochemical
Excerpt: A first aspect of the present invention comprises the discovery of a dihydrate crystalline form of 5,11-dihydro-11-ethyl-5-methyl-8-{2-{(1-oxido-4-quinolinyl)oxy}ethyl}-6H-dipyrido[3,2-b:2′,3′-e][1,4]diazepin-6-one. […] The invention also comprises methods for making this dihydrate crystalline form.
(§1) We have further discovered that under proper conditions several anhydrous polymorphs of 5,11-dihydro-11-ethyl-5-methyl-8-{2-{(1-oxido-4-quinolinyl)oxy} ethyl}-6H-dipyrido[3,2-b:2′,3′-e][1,4]diazepin-6-one may be formed. […] Thus, the invention further includes anhydrous Form III of 5,11-dihydro-11-ethyl-5-methyl-8-{2-{(1-oxido-4-quinolinyl)oxy}ethyl}-6H-dipyrido[3,2-b:2′,3′-e][1,4]diazepin-6-one and methods for its manufacture.

[3] = Biological testing of plasma levels of crystalline forms; type: in vivo; conditions: compared with other crystalline forms of the drug
Excerpt: as §1

melting point [°C] | water content of ethanol solution in contact with which the form is thermodynamically favored over the other forms [1] [wt % water] | phase stability ([2]; some tested ambient conditions) | water content of ethanol solution in contact with which the form is thermodynamically favored over the other forms ([1]; dihydrate) [wt % water] | thermodynamic or kinetic preference on storage ([2]; temperatures and humidities most likely encountered on storage of drug substance or drug product, compared with the trihydrate) | SMILES | thermodynamic preference between crystalline forms (phase diagram) [1] | plasma levels [3]
199 | – | – | – | – | CCN1c2ncc(CCOc3cc[n+]([O-])c4ccccc34)cc2C(=O)N(C)c2cccnc21 (hydrate or solvate) [dihydrate, 5,11-dihydro-11-ethyl-5-methyl-8-{2-{(1-oxido-4-quinolinyl)oxy}ethyl}-6H-dipyrido[3,2-b:2′,3′-e][1,4]diazepin-6-one dihydrate] | – | –
198.2 | < 2.7±0.5 | demonstrated phase stability | – | – | CCN1c2ncc(CCOc3cc[n+]([O-])c4ccccc34)cc2C(=O)N(C)c2cccnc21 [anhydrous Form III, 5,11-dihydro-11-ethyl-5-methyl-8-{2-{(1-oxido-4-quinolinyl)oxy}ethyl}-6H-dipyrido[3,2-b:2′,3′-e][1,4]diazepin-6-one Anhydrous Form III] | thermodynamically preferred over anhydrous Form I | higher plasma levels than are attainable using other crystalline forms
– | – | – | > 2.7 | thermodynamically or kinetically favored | CCN1c2ncc(CCOc3cc[n+]([O-])c4ccccc34)cc2C(=O)N(C)c2cccnc21 [dihydrate, 5,11-dihydro-11-ethyl-5-methyl-8-{2-{(1-oxido-4-quinolinyl)oxy}ethyl}-6H-dipyrido[3,2-b:2′,3′-e][1,4]diazepin-6-one dihydrate] | – | –
